Results published in US9078890B2, “Use of koumine and its homologues in preparation of medicament for treatment of autoimmune diseases of involved bones and joints” (priority 2011, dated 2015).
Marks after values point to notes of the source that are not given here.

Experiments:
[1] = tested on: type II collagen-induced arthritis rat; assay: Type II collagen-induced arthritis rat: joint pathological change, HE staining and pathological score; format: in vivo, Wistar rat; conditions: koumine 0.6, 3, 15 mg/kg intragastric; 10 days after intervention
Method: (§1) Under aseptic conditions, 10 mg chicken type II collagen protein was fully mixed with 5 ml 10 mM glacial acetic acid solution, and stirred overnight in refrigerator at 4° C. to fully dissolve it. It was mixed with complete Freund's adjuvant in equal volume in ice bath to fully emulsify into an emulsion with a collagen concentration of 1 mg/ml.
Wistar rats are divided into a modeling group and a false modeling group. After the modeling group rats were narcotized with intraperitoneal injection of pentobarbital, the above emulsion was injected intracutaneously at 3 to 4 positions at back, tail root or the like, 0.3 ml for each, an primary immunity was carried out. After 7 days, a secondary immunity was carried out, the emulsifying agent complete Freund's adjuvant of initial immunity was replaced with incomplete Freund's adjuvant, 0.1 ml the emulsion was injected under sevoflurane inhalation anesthesia wherein the injection position is different from the last time. In false modeling group, the emulsion was replaced with solvent glacial acetic acid solution. […]
The rats of each group were killed 10 days after intervention, the ankle joints of left hind limbs were picked off to conduct HE staining, and the pathological change was observed and scored. […]

[2] = tested on: type II collagen-induced arthritis rat; assay: Type II collagen-induced arthritis rat: paw swelling degree and arthritis index; format: in vivo, Wistar rat; conditions: koumine 0.6, 3, 15 mg/kg intragastric; Day 5, Day 10 of intervention; dose dependent
Method: as §1
(§2) Wistar rats are divided into a modeling group and a false modeling group. After the modeling group rats were narcotized with intraperitoneal injection of pentobarbital, the above emulsion was injected intracutaneously at 3 to 4 positions at back, tail root or the like, 0.3 ml for each, an primary immunity was carried out. After 7 days, a secondary immunity was carried out, the emulsifying agent complete Freund's adjuvant of initial immunity was replaced with incomplete Freund's adjuvant, 0.1 ml the emulsion was injected under sevoflurane inhalation anesthesia wherein the injection position is different from the last time. In false modeling group, the emulsion was replaced with solvent glacial acetic acid solution.
(§3) Successfully modeled rat in the modeling group were randomly divide into 5 groups: low, middle, high-dose koumine treatment group, positive control group, negative control group, 10 rats for each group. […]

adjuvant arthritis mice [3] = assay: Adjuvant arthritis mice: hyperalgesia (phlogogenic paw thermal withdrawal latency); format: in vivo, Kunming mice
Method: (§4) BCG was inactivated in water bath at 80° C., and fully emulsified along with complete Freund's adjuvant to form complete Freund's adjuvant emulsion containing 5 mg/ml BCG, preserved at 4° C., and shake well before use. The Kunming mice were divided into a modeling group and a false modeling group. According to the method recited in the literature [Rasool M, Sabina E P, Lavanya B. Anti-inflammatory effect of Spirulina fusiformis on adjuvant-induced arthritis in mice. Biol Pharm Bull. 2006, 29(12):2483-7], for the modeling group, the model was prepared by intradermal injection of 20 ul the emulsion under the plantar surface of right paws after the mice was narcotized; for the false modeling group, the emulsion was replaced with physiological saline. For the modeling group, the animals were screened on Day 8 after injection: the mice with the injected paw thickness increased >0.5 mm and thermal hyperalgesia occurred (paw thermal withdrawal latency <8 second) were selected as experimental subjects. The selected mice were divided into 5 groups randomly: low, middle, high dose treatment group (0.8, 4, 20 mg/kg); indomethacin positive control group (10 mg/kg); negative control group (physiological saline), each comprising 12 animals. Day 8 after inflammation, intragastric administration was carried out on each group to give corresponding intervention, one time per day for 10 days continuously.
30 min after intragastric administration, the phlogogenic paw thermal withdrawal latency of the mice in each group was determined by photo-thermal dolorimeter to reflect animals' hyperalgesia status.

adjuvant arthritis mice [4] = assay: Adjuvant arthritis mice: phlogogenic paw swelling (paw thickness); format: in vivo, Kunming mice; conditions: koumine 0.8, 4, 20 mg/kg intragastric once daily; Day 4-18 after inflammation
Method: as §4, with “The selected mice were divided into 5 groups randomly: low, middle, high dose treatment group (0.8, 4, 20 mg/kg); indomethacin positive control group (10 mg/kg); negative control group (physiological saline), each comprising 12 animals. Day 8 after inflammation, intragastric administration was carried out on each group to give corresponding intervention, one time per day for 10 days continuously.” left out
According to Methodology of Pharmacological Experiment (Shuyun Xu, Rulian Bian: Methodology of Pharmacological Experiment [M], 3rd Ed., People's Medical Publishing House: 912-913), paw thickness was selected as a paw swelling index and was measured using vernier caliper, measuring timing is the same as above, each measurement repeats 3 times and the average was taken (similarly hereinafter).

adjuvant arthritis mice [5] = assay: Adjuvant arthritis mice: joint pathology damage (HE staining); format: in vivo, Kunming mice; conditions: koumine 0.8, 4, 20 mg/kg intragastric; Day 19; dose dependent
Method: as §4, with “Day 8 after inflammation, intragastric administration was carried out on each group to give corresponding intervention, one time per day for 10 days continuously.” left out

[6] = tested on: type II collagen-induced arthritis rat; assay: Type II collagen-induced arthritis rat: joint pathological change, X-ray; format: in vivo, Wistar rat; conditions: high dose and middle dose of koumine (15 and 3 mg/kg); 9 days after intervention
Method: as §1, §2, §3

[7] = koumine 0.8 mg/kg intragastric once daily from Day 8
[8] = koumine 4 mg/kg intragastric once daily from Day 8
[9] = koumine 20 mg/kg intragastric once daily from Day 8

Question: Which results are given for `C=CC12CN(C)C3CC14C(=Nc1ccccc14)C1CC2C3CO1` (stereo not shown) [Koumine]?
Answer: Scores of pathologic change degree of ankle joints, HE staining (FIGS. 9 and 10) [1]: significantly decrease the scores of pathologic change degree of ankle joints; Effect on arthritis index (FIG. 7) [2]: reduces arthritis index; Effect on paw swelling, paw volume (FIG. 6) [2]: relieves the paw swelling; Thermal stimulus withdrawal latency, Before intervention (adjuvant arthritis mice [3]; koumine 0.8 mg/kg intragastric once daily for 10 days from Day 8 after inflammation): 14.1 ± 1.1 s; Thermal stimulus withdrawal latency, Intervention Day 4 (adjuvant arthritis mice [3]; [7]): 5.9 ± 1.3^★★ second; Thermal stimulus withdrawal latency, Intervention Day 8 (adjuvant arthritis mice [3]; [7]): 4.9 ± 1.1^★★ second; Thermal stimulus withdrawal latency, Intervention Day 12 (adjuvant arthritis mice [3]; [7]): 4.9 ± 1.0*^★ second; Thermal stimulus withdrawal latency, Intervention Day 16 (adjuvant arthritis mice [3]; [7]): 5.9 ± 1.0**^★ second; Thermal stimulus withdrawal latency, Intervention Day 18 (adjuvant arthritis mice [3]; [7]): 6.1 ± 1.2**^★★ second; Thermal stimulus withdrawal latency, Before intervention (adjuvant arthritis mice [3]; koumine 4 mg/kg intragastric once daily for 10 days from Day 8 after inflammation): 13.6 ± 1.1 s; Thermal stimulus withdrawal latency, Intervention Day 4 (adjuvant arthritis mice [3]; [8]): 5.8 ± 1.5^★★ second; Thermal stimulus withdrawal latency, Intervention Day 8 (adjuvant arthritis mice [3]; [8]): 4.3 ± 0.8 s; Thermal stimulus withdrawal latency, Intervention Day 12 (adjuvant arthritis mice [3]; [8]): 6.7 ± 1.9**^★ second; Thermal stimulus withdrawal latency, Intervention Day 16 (adjuvant arthritis mice [3]; [8]): 7.8 ± 1.9**^★ second; Thermal stimulus withdrawal latency, Intervention Day 18 (adjuvant arthritis mice [3]; [8]): 8.4 ± 1.8**^★★ second; Thermal stimulus withdrawal latency, Before intervention (adjuvant arthritis mice [3]; koumine 20 mg/kg intragastric once daily for 10 days from Day 8 after inflammation): 13.9 ± 1.1 s; Thermal stimulus withdrawal latency, Intervention Day 4 (adjuvant arthritis mice [3]; [9]): 6.1 ± 1.4^★★ second; Thermal stimulus withdrawal latency, Intervention Day 8 (adjuvant arthritis mice [3]; [9]): 4.7 ± 1.5^★★ second; Thermal stimulus withdrawal latency, Intervention Day 12 (adjuvant arthritis mice [3]; [9]): 9.2 ± 1.2**^★ second; Thermal stimulus withdrawal latency, Intervention Day 16 (adjuvant arthritis mice [3]; [9]): 10.7 ± 1.2**^★★ second; Thermal stimulus withdrawal latency, Intervention Day 18 (adjuvant arthritis mice [3]; [9]): 10.8 ± 1.1**^★★ second; Effect on thermal stimulus withdrawal latency (summary of Table 1) (adjuvant arthritis mice [3]; koumine 0.8, 4, 20 mg/kg intragastric, dose-effect and time-effect relationships): can significantly extend the thermal stimulus withdrawal latency; Effect on phlogogenic paw thickness (FIG. 2) (adjuvant arthritis mice [4]): reduces the phlogogenic paw thickness of adjuvant arthritis mice in dose and time-dependent manner; Effect on joint pathology damage, HE staining (FIG. 3) (adjuvant arthritis mice [5]): can improve the inflammatory cell infiltration, synovial hyperplasia, bone destruction; Joint pathological change, X-ray images (FIG. 8) [6]: relieve the bone destruction of ankle joint
